Assay results taken from paper PMC11697409, “Design of Natterins-based peptides improves antimicrobial and antiviral activities” (Biotechnology Reports, 2024).
Like-named read-outs stand apart in the source and are kept apart here. Residues, ends and D or L forms follow the SMILES beside them. No end group written: not given here.

Experiments:
trypsin [1] = conditions: cited from earlier work
Protocol: In the case of the peptide Cap11, this loss of activity occurs after 15 min of incubation. Conversely, a brief exposure of up to 5 min to trypsin enhances the antimicrobial activity of peptides such as Cap11–1-18m² by a factor of 2 [76]. […] The sp ...

[2] = various assays; cited from earlier work
Excerpt: Similarly, peptides including HKPLP, Cap18, Cap11, Cap11–1-18m², Cecropin B, Cecropin P1, Melittin, Indolic ...

G. mellonella larvae = assay: Toxicity in Galleria mellonella; type: in vivo; conditions: 10 µL of 50 µM injected into the last left proleg, ten larvae per group, 7 days, three independent experiments
Protocol: For this study, the methodologies described by Mylonakis et al. and Jorjão et al., with some modifications were employed. G. mellonella larvae in their final larval stage were used for the experiment. Ten randomly selected G. mellonella larvae of similar weight and size (250 to 350 mg) were used per group in all assays. Syringes (Hamilton Inc., USA) used for injections were sterilized with peracetic acid (Henkel - Ecolab GmbH, Düsseldorf, Germany) according to the manufacturer's instructions prior to inoculation. Each larva was injected with 10 µL of each peptide (NATT2_06 and NATT4_01) at a concentration of 50 µM into the last left proleg. A control group was injected with PBS to assess overall viability. The number of deceased G. mellonella was recorded every 24 h after peptide injection, with monitoring continuing for 7 days across three independent experiments. […] The experiment concluded either when all larvae in the experimental group had died or transitioned into the pupal form.

trypsin [3] = assay: Peptide stability to trypsin, HPLC-MS; type: in vitro ADME; conditions: trypsin 20 μg/mL, peptide 100 μg/mL, incubation time not given; for Change after trypsin treatment, mass spectra: ESI-MS; for Change after trypsin treatment, HPLC chromatogram: HPLC C-18, UV 220 nm
Protocol: Peptide stability was evaluated under various conditions. To investigate the impact of temperature on peptide structure, samples were incubated at 37 °C and 60 °C for 24 h. A control sample was kept at -4 °C. To evaluate the distribution under acidic conditions, the peptides were dissolved in a 0.074 M HCl solution, resulting in a pH of 3. For evaluation under basic conditions, the peptides were dissolved in a 0.18 M NaOH solution, resulting in a pH of 11. A control sample was maintained at pH 7. Additionally, samples were exposed to trypsin solutions at a concentration of 20 µg/mL. All samples underwent analysis using High-Performance Liquid Chromatography (HPLC) coupled with Mass Spectrometry (LC/MS-2020 EV - Prominence; Shimadzu Corporation, Tokyo, Japan). The HPLC system comprised LC-10AD mobile phase pumps, an Ultrasphere C-18 column (5 µm; 4.6 × 250 mm), a UV-vis SPD-10AV detector set at a wavelength of 220 nm, and a mass spectrometer operating in electrospray ionization (ESI) mode with a quadrupole separator.
In mass spectrometry assays, an alkaline pH can lead to diverse outcomes. Specifically, in the analysis of proteins and peptides, an alkaline environment may induce unintended chemical modifications in certain samples, impacting ionization, fragmentation, and the detection of reference molecules. Additionally, the peptides underwent treatment with a trypsin solution at a concentration of 20 μg/mL.

human RBC = assay: Hemolytic test; type: cell-based; conditions: 50 μM, 1 h at 37 °C, A570, 1 % TritonX-100 as positive control; highest percentage observed
Protocol: To perform the hemolytic test, human RBC was obtained from a volunteer donor. After centrifugation at 1000 xg for 5 min, the RBC pellets were resuspended in 5 % (vol/vol) sterile saline at different concentrations of peptides NATT2_06 and NATT4_01, and subsequently incubated at 37 °C for 1 hour. The supernatants were transferred to a 96-well plate, and the absorbance at 570 nm (A570) was measured. 0.12 % DMSO and 1 % TritonX-100 were used as negative and positive control, respectively. The hemolysis rate was calculated as Eq 1: Hemolysis%=A(sample)−A(DMSO)/A(Triton)−A(DMSO)x100

[4] = system: Chikungunya virus (CHIKV, ECSA genotype) in Huh-7 cells; type: cell-based; conditions: vs untreated CHIKV control
Protocol: . First, the viral propagation and titration were performed in the adherent African green monkey kidney epithelial (Vero) cells (ATCC CRL-1586). The virus was grown in Vero cultured in MEM medium (Gibco, Waltham, MA, USA) supplemented with 10 % fetal bovine serum (FBS, Gibco), 100 U/mL penicillin, and 100 μg/mL streptomycin (Gibco, Waltham, MA, USA)-M10) for 48 h Then, the supernatant was collected, harvested, and titrated as previously described. The titer obtained for CHIKV was 9.3 × 10^6 PFU/ml.
The immortalized human hepatocytes derived from the hepatocarcinoma of an individual (Huh-7 lineage, CLS 300156) were cultured. The Huh-7 were grown in Minimum Essential Medium (Advanced MEM, Gibco®, USA), supplemented with 10 % (v/v) heat-inactivated fetal bovine serum (FBS) (Gibco®, USA), 100 U/mL penicillin, and 100 μg/mL streptomycin (PenStrep – Gibco®, USA), along with 2 mM L-glutamine (Gibco®, USA), and maintained in a humidified atmosphere with 5 % CO2 at 37 °C. […]
The second assay, named "co-treatment" (Figure S1b), involved removing the culture medium from the wells, washing with PBS, followed by simultaneous inoculation of CHIKV and peptides, diluted in the same manner in culture medium with the same supplementation, in triplicate. […] Cells were also monitored for 12 h. […]
After conducting the assays, each viral RNA in the samples' supernatant was extracted using the QIAamp® Viral RNA Mini Kit (QIAGEN®, Germany). […] For the molecular characterization of NATT peptide treatment, RNA samples extracted from the plaque challenge assays' supernatants and viral stock dilutions underwent quantitative reverse transcription PCR (RT-qPCR) assays. […]
For the RT-qPCR reaction, the AgPath-ID® One Step RT-qPCR kit (Applied Biosystems®, USA) was used for each extracted RNA in duplicate. […] All detection and quantification of viral RNA was done by real-time PCR of each sample (Table S1 and Figure S14). […]

Row | Compound | time of incubation with trypsin until antimicrobial activity is entirely lost (trypsin [1]) [s] | temperature withstood [2] | also measured
1 | Indolicidin (ILPWKWPWWPWRR; ends and bridges not checked; UniProt P33046 131-143, looked up) | ≤ 30 | up to 100 °C | –
2 | CC(C)C[C@H](NC(=O)[C@H](CCCCN)NC(=O)[C@@H]1CCCN1C(=O)[C@H](CCCNC(=N)N)NC(=O)[C@H](CC(C)C)NC(=O)[C@@H](NC(=O)[C@@H](N)[C@@H](C)O)[C@@H](C)O)C(=O)N[C@@H](CCCCN)C(=O)N[C@@H](CO)C(=O)N[C@@H](CCCCN)C(N)=O [NATT2_06] (H-TTLRPKLKSK-NH2) | – | – | Deaths of G. mellonella larvae (G. mellonella larvae): only three deaths occurred; Change after trypsin treatment, mass spectra (trypsin [3]): displayed notable changes in mass; Change after trypsin treatment, HPLC chromatogram (trypsin [3]): displayed notable changes in mass; hemolysis (human RBC): 2%
3 | Cap18 | ≤ 30 | up to 100 °C | –
4 | Melittin | ≤ 30 | up to 100 °C | –
5 | CC(C)C[C@H](NC(=O)[C@H](CCCCN)NC(=O)CNC(=O)[C@H](CC(C)C)NC(=O)CNC(=O)[C@H](Cc1ccc(O)cc1)NC(=O)[C@H](CCCCN)NC(=O)[C@H](CC(N)=O)NC(=O)[C@H](CCCCN)NC(=O)[C@H](C)NC(=O)[C@@H](NC(=O)[C@H](Cc1ccc(O)cc1)NC(=O)[C@@H](N)CC(C)C)C(C)C)C(N)=O [NATT4_01] (H-LYVAKNKYGLGKL-NH2) | – | – | Percentage of viral inhibition, co-treatment ([4]; 25 μM): 25,31%; Percentage of viral inhibition, co-treatment ([4]; 50 μM): 22,62%; Percentage of viral inhibition, co-treatment ([4]; 3125 μM (so in the source)): 22,44%; Deaths of G. mellonella larvae (G. mellonella larvae): no deaths were observed; Change after trypsin treatment, mass spectra (trypsin [3]): fragments of the peptide were discernible; Change after trypsin treatment, HPLC chromatogram (trypsin [3]): no notable shifts observed in the chromatograms
6 | Cecropin P1 (SWLSKTAKKLENSAKKRISEGIAIAIQGGPR; Cecropin-P1; UniProt P14661 14-44, looked up) | ≤ 30 | up to 100 °C | –
7 | Cecropin B | ≤ 30 | up to 100 °C | –
